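In this assay, cells in 96-well plates receive the compound at five concentrations for 48 hours. Endpoints are linearly interpolated between the surrounding concentrations. GI50 is the concentration that inhibits growth by half. At the TGI there is no net growth.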
What was measured:
Assay in all cases: inhibition of tumour cell growth, NCI panel, 48 h
[1] = tested on: LXFL 529 NSCLC
[2] = tested on: KM20L2 colon
[3] = tested on: DMS 273 small cell lung
[4] = tested on: HOP-18 NSCLC
[5] = tested on: DLD-1 colon
[6] = tested on: DMS 114 small cell lung
[7] = tested on: RXF-631 renal
[8] = tested on: XF 498 CNS

Compound | TGI [1] [µM] | TGI [2] [µM] | TGI [3] [µM] | TGI [4] [µM] | TGI [5] [µM] | TGI [6] [µM] | GI50 [1] [nM] | GI50 [3] [µM] | GI50 [4] [nM] | GI50 [6] [nM] | TGI [7] [µM] | TGI [8] [µM]
CC(Sc1ccccc1)C(CO)(CO)[N+](=O)[O-] (centres undefined) | 27.5 | 31.7 | > 100 | 45.6 | 29 | 32.5 |  |  |  |  |  | 
C/C(=N\NC(=O)c1cccnc1)c1cccc(/C(C)=N/NC(=O)c2cccnc2)n1 | > 100 | > 100 | 25.5 | 6.15 | > 100 | 15.9 | 2470 | 5.02 | 1060 | 2700 |  | 
CC(=O)N(C)c1ccc2c(ccc[n+]2[O-])c1[N+](=O)[O-] | > 100 | > 100 | > 100 | > 100 | > 100 | > 100 |  |  |  |  | > 100 | > 100
C[C@]12CC[C@@H]3c4ccccc4CC[C@H]3[C@@H]1CC[C@@H]2O | > 100 | > 100 | > 100 |  | > 100 |  |  |  |  |  |  | 
Nc1ccc2c(c1)C(=O)N(O)C2=O | > 100 | > 100 |  |  | > 100 | > 100 |  |  |  |  |  | > 100
COC(=O)C1C(C)N1C (centres undefined) | > 100 |  | > 100 |  | > 100 | > 100 |  |  |  |  | > 100 | > 100

Reference: PubChem BioAssay (NCI)
